The results in this text go back to patent US20230295113A1, “NLRP3 MODULATORS” (ZOMAGEN BIOSCIENCES LTD, priority 2022, published 2023).

The structures appear in SMILES notation.

In the first assay the test system is IL-1b. Briefly: Human Monocyte IL-1b Assay. Type of assay: cell-based. As to conditions: Homo sapiens, Monocyte, fresh human whole blood; compound 0.5 h, 100 ng/mL LPS 3.5 h at 37° C., 5 mM ATP 45 min; IL-1b in supernatant by ELISA. The protocol:
Example 46: Human Monocyte IL-1b Assay
Serially diluted testing compounds were incubated with […] of fresh human whole blood for 0.5 hours. Cells were primed with 100 ng/mL lipopolysaccharide (LPS) for 3.5 hours at 37° C. followed by stimulation with 5 mM ATP for an additional 45 minutes. The concentration of IL-1b concentration in the supernatant was determined with commercially available ELISA kits. Negative controls are wells without stimulation, while positive controls are wells with stimulation but only DMSO without compounds added. After background subtraction, compound treatment wells were then normalized to the positive controls for IC50 calculations.
For orientation: ELISA stands for enzyme-linked immunosorbent assay.
`Cc1cc(C(C)(O)C2CCCN(C)C2)nnc1-c1ccc(C(F)(F)F)cc1O` (stereo not shown) [Compound 15, 2-(6-(1-hydroxy-1-(1-methylpiperidin-3-yl)ethyl)-4-methylpyridazin-3-yl)-5-(trifluoromethyl)phenol] returned an IC50 of less than 500 nM.

In turn, `CC(c1nnc(-c2ccc(C(F)(F)F)cc2O)c2ccccc12)C1CCCNC1` (stereo not shown) [Compound 22, 2-(4-(1-(piperidin-3-yl)ethyl)phthalazin-1-yl)-5-(trifluoromethyl)phenol] displayed an IC50 of less than 500 nM.

For the compound `Cc1cc([C@@H](O)[C@H]2CCCN(C)C2)nnc1-c1ccc(C(F)(F)F)cc1O` [Compound 17D, 2-(6-((S)-hydroxy((S)-1-methylpiperidin-3-yl)methyl)-4-methylpyridazin-3-yl)-5-(trifluoromethyl)phenol], the IC50 is 500 to 3000 nM.

As to `Cc1cc(C(=O)C2CCCN(C)C2)nnc1-c1ccc(C(F)(F)F)cc1O` (stereo not shown) [Compound 14, (6-(2-hydroxy-4-(trifluoromethyl)phenyl)-5-methylpyridazin-3-yl)(1-methylpiperidin-3-yl)methanone], the IC50 was less than 500 nM.

Take `Cc1cc([C@@H](O)C2CN3CCC2CC3)nnc1-c1ccc(C(F)(F)F)cc1O` (stereo partly drawn) [Compound 28B, 2-(6-((1S)-hydroxy(quinuclidin-3-yl)methyl)-4-methylpyridazin-3-yl)-5-(trifluoromethyl)phenol]: the IC50 was 500 to 3000 nM.

For `CCN1CCC[C@@H]([C@@H](O)c2cc(C)c(-c3ccc(C(F)(F)F)cc3O)nn2)C1` [Compound 45, 2-(6-((R)-((R)-1-ethylpiperidin-3-yl)(hydroxy)methyl)-4-methylpyridazin-3-yl)-5-(trifluoromethyl)phenol], the IC50 is less than 500 nM.

In the case of `COC(c1nnc(-c2ccc(C(F)(F)F)cc2O)c(C)c1C)C1CCCN(C)C1` (stereo not shown) [Compound 6, 2-(6-(methoxy(1-methylpiperidin-3-yl)methyl)-4,5-dimethylpyridazin-3-yl)-5-(trifluoromethyl)phenol], the IC50 lay within 500 to 3000 nM.

The compound `Cc1c(-c2ccc(C(F)(F)F)cc2O)nnc(C(F)c2cccnc2)c1C` (stereo not shown) [Compound 4, 2-(6-(fluoro(pyridin-3-yl)methyl)-4,5-dimethylpyridazin-3-yl)-5-(trifluoromethyl)phenol] registered an IC50 of 3000 to 10000 nM.

`COc1cc(C(F)(F)F)ccc1-c1nnc([C@H](O)[C@@H]2CCCN(C)C2)cc1C` [Compound 24, (R)-(6-(2-methoxy-4-(trifluoromethyl)phenyl)-5-methylpyridazin-3-yl)((R)-1-methylpiperidin-3-yl)methanol] came in with an IC50 of less than 500 nM.

In turn, `Cc1cc(C(O)[C@@H]2CCN(C)C2)nnc1-c1ccc(C(F)(F)F)cc1O` (stereo partly drawn) [Compound 26, 2-(6-(hydroxy((R)-1-methylpyrrolidin-3-yl)methyl)-4-methylpyridazin-3-yl)-5-(trifluoromethyl)phenol] showed an IC50 of less than 500 nM.

As to `Cc1c(-c2ccc(C(F)(F)F)cc2O)nnc(C(O)C2CCCN(C)C2)c1C` (stereo not shown) [Compound 1, 2-(6-(hydroxy(1-methylpiperidin-3-yl)methyl)-4,5-dimethylpyridazin-3-yl)-5-(trifluoromethyl)phenol], the IC50 fell in the range of 500 to 3000 nM.

Compound `Cc1cc(O)c(-c2ccc(C(O)C3CCCN(C)C3)nn2)c(F)c1` (stereo not shown) [Compound 8, 3-fluoro-2-(6-(hydroxy(1-methylpiperidin-3-yl)methyl)pyridazin-3-yl)-5-methylphenol] registered a half-inhibitory concentration (IC50) of less than 500 nM.

On to `Cc1cc(C(O)C23CC(CN(C)C2)C3)nnc1-c1ccc(C(F)(F)F)cc1O` (stereo not shown) [Compound 35, 2-(6-(hydroxy(3-methyl-3-azabicyclo[3.1.1]heptan-1-yl)methyl)-4-methylpyridazin-3-yl)-5-(trifluoromethyl)phenol], for which the IC50 was 500 to 3000 nM.

In turn, `Cc1cc(O)c(-c2ccc(CC3CCCN(C)C3)nn2)c(F)c1` (stereo not shown) [Compound 7, 3-fluoro-5-methyl-2-(6-((1-methylpiperidin-3-yl)methyl)pyridazin-3-yl)phenol] displayed an IC50 of less than 500 nM.

Consider `CN1CCC(=O)C(C(O)c2ccc(-c3ccc(C(F)(F)F)cc3O)nn2)C1` (stereo not shown) [Compound 23, 3-(hydroxy(6-(2-hydroxy-4-(trifluoromethyl)phenyl)pyridazin-3-yl)methyl)-1-methylpiperidin-4-one], for which the IC50 is 3000 to 10000 nM.

In the case of `Cc1cc([C@H](O)[C@]2(C)CCCN(C)C2)nnc1-c1ccc(C(F)(F)F)cc1O` [Compound 27A, 2-(6-((R)-((R)-1,3-dimethylpiperidin-3-yl)(hydroxy)methyl)-4-methylpyridazin-3-yl)-5-(trifluoromethyl)phenol], the IC50 lay within 500 to 3000 nM.

Compound `Cc1cc(C(O)C2CN(C)C2)nnc1-c1ccc(C(F)(F)F)cc1O` (stereo not shown) [Compound 31, 2-(6-(hydroxy(1-methylazetidin-3-yl)methyl)-4-methylpyridazin-3-yl)-5-(trifluoromethyl)phenol] returned a half-inhibitory concentration (IC50) of less than 500 nM.

The same assay, now with this note: Monocyte; fresh human whole blood; compound 0.5 h, 100 ng/mL LPS 3.5 h at 37° C., 5 mM ATP 45 min; IL-1b in supernatant by ELISA.
Compound `Cc1cc(C(O)C23CCC(CC2)N(C)C3)nnc1-c1ccc(C(F)(F)F)cc1O` (stereo not shown) [Compound 33, 2-(6-(hydroxy(2-methyl-2-azabicyclo[2.2.2]octan-4-yl)methyl)-4-methylpyridazin-3-yl)-5-(trifluoromethyl)phenol] displayed an IC50 of 500 to 3000 nM.

`Cc1cc(C(O)C2CC3CC2N(C)C3)nnc1-c1ccc(C(F)(F)F)cc1O` (stereo not shown) [Compound 36, 2-(6-(hydroxy(2-methyl-2-azabicyclo[2.2.1]heptan-6-yl)methyl)-4-methylpyridazin-3-yl)-5-(trifluoromethyl)phenol] yielded an IC50 of less than 500 nM.

By IC50 is commonly meant the midpoint of a concentration-inhibition curve. High values mean weaker potency in that assay, low ones greater potency in that assay.
